Here are results for 109 compounds from a melting point compilation (Tetko et al.).

A word on the melting point: it is the temperature, or range, at which the solid turns liquid.

`O=C(OCCOc1ccc(Cl)cc1Cl)c1ccccc1` yielded a melting point of 66 °C.
`CCc1cccc2ccccc12`: the melting point is -13.9 °C.
In the case of `O=C1/C(=N\Nc2cccc(F)c2)C(C(F)(F)F)=NN1c1ccccc1` it was 105 to 107 °C; in that of `CCOC(=O)NC(=S)Nc1sc2c(c1C(=O)OCC)CCN(Cc1ccccc1)C2`, 206 °C; in that of `O=C(O)C1CC2CC1CCC2O` (centres undefined), 160 to 169 °C.
In the case of `CC(=O)OCCOc1cc(OC(C)=O)c2c(=O)c(OC(C)=O)c(-c3ccc(OCCOC(C)=O)c(OCCOC(C)=O)c3)oc2c1` it was 96 to 97 °C; in that of `O=Cc1[nH]ncc1Br`, 80 to 82 °C; in that of `CC[N+](CC)(CC)S(=O)(=O)[N-]C(=O)OC`, 77 °C.
In the case of `CCC[N+](=O)[O-]` it was -108 °C; in that of `O/N=C1/CC(c2ccccc2)Cc2ccncc21` (centres undefined), 227 °C; in that of `CCO[Si](Cl)(OCC)OCC`, -51 °C.
`Cc1ccc(S(=O)(=O)N[C@H](c2ccccc2)[C@H](NS(=O)(=O)c2ccc(C)cc2)c2ccccc2)cc1` had a melting point of 203 to 208 °C.
As for `N#CCC(=O)OCc1ccccc1`, the melting point turned out to be 28 °C.
In the case of `CC1(CC(=O)O)OCCc2sccc21` (centres undefined) it was 92.5 to 93.5 °C; in that of `c1ccc(P(CCCCCP(c2ccccc2)c2ccccc2)c2ccccc2)cc1`, 47 °C; in that of `COc1cc(Br)c(C=O)cc1OC`, 150 °C.
In turn, `O=[N+]([O-])c1ccc(-c2nn3c(C(F)(F)F)nnc3s2)cc1` yielded a melting point of 213 °C.
Turning to `CC(=O)C(=Cc1ccc(-c2cccc([N+](=O)[O-])c2)o1)C(C)=O`, the melting point was 153 to 154 °C.
In the case of `C[Si]1(C)O[Si](C)(C)O[Si](C)(C)O[Si](C)(C)O[Si](C)(C)O[Si](C)(C)O1` it was -3 °C; in that of `COc1c(Cl)ccc(Cl)c1Cl`, 45 °C.
In the case of `O=C(O)c1cc(F)c(F)cc1Cl` it was 106 °C; in that of `Cc1cccc(Cl)c1C=O`, 37 °C.
In the case of `O=CC=O` it was 15 °C; in that of `Nc1cc(N)nc(N)n1`, 250 °C; in that of `CCC1CC(NC(=O)CNC(=O)CBr)C(C)(C)N1O` (centres undefined), 145 to 147 °C.
`CC(=O)CC(C)(C)O`: the melting point is -42.8 °C.
On to `CC(=O)NCc1c(I)c(NC(C)=O)c(I)c(C(=O)O)c1I`, for which the melting point stood at 255 °C.
The same measure for `CC1CCC(C)(COC(=O)c2ccc(N)cc2)C1(C)C` (centres undefined): 74 °C.
The same measure for `CC(C)(C)NCC(O)COc1ccccc1C#N` (centres undefined): 164 °C; for `C=CCc1c(O)c(C(=O)c2ccccc2)cc(C(=O)c2ccccc2)c1O`: 161 °C; for `O=C(/C=C/c1ccc(-c2ccc(Cl)cc2)o1)c1ccco1`: 148 °C.
With `CN(C)C(=O)N(C(=O)c1ccccc1)c1ccc(Cl)c(Cl)c1`, the melting point was found to be 119 °C.
Take `O=C(O)CCc1cc(I)c(Oc2ccc(O)c(I)c2)c(I)c1`: the melting point is 200 °C.
As for `CCOC(=O)CC(=O)c1ccncc1`, the melting point lay within 53 to 59 °C.
In the case of `OCc1cc(CO)cc(OCc2cc(COc3cc(CO)cc(CO)c3)cc(COc3cc(CO)cc(CO)c3)c2)c1` it was 144 °C; in that of `Cc1cc(C(=O)O)cc(Cl)n1`, 193 °C; in that of `CCOC(=O)c1cnc2nc(SC)nn2c1N`, 211 to 213 °C.
In the case of `Cc1ccc(C)nc1` it was -16 °C.
For the compound `COc1ccc2c(c1)c(C=O)cn2C`, the melting point stood at 135 °C.
In the case of `CCC1CCc2ccccc2C1` (centres undefined) it was -42.8 °C.
In the case of `CC(=O)OCC1C(=O)C2(C)CCC1C2(C)C` (centres undefined) it was 148 °C; in that of `CC(C)n1c(C(F)(F)F)nc2cc(C(=O)Cl)ccc21`, 102 °C.
In the case of `CCn1c(-c2ccccc2)cc2ccccc21` it was 86 °C; in that of `O=C(Cl)c1ccc(Oc2ccccn2)cc1`, 80 to 81 °C; in that of `Cc1cc(C)c2c(N)c(C(N)=O)sc2n1`, 234 to 235 °C.
Consider `CC1=CCC(C(C)(C)O)CC1` (centres undefined), for which the melting point turned out to be 40.5 °C.
In the case of `Cc1ccnc(Nc2nc3ccccc3[nH]2)c1` it was 279 to 281 °C; in that of `O=C(O)c1cccc2cccc(C(=O)O)c12`, 260 °C.
`CCOC(=O)CC1NCCNC1=O` (centres undefined) gave a melting point of 102 to 105 °C.
`CCn1c(=O)n(CC)c(=O)n(CC)c1=O` yielded a melting point of 96.8 °C.
As for `NCC(O)C(=O)O` (centres undefined), the melting point turned out to be 235 °C.
In turn, `Fc1ccccc1F` had a melting point of -34 °C.
With `C#CC1=C(C=NNc2ccc([N+](=O)[O-])cc2[N+](=O)[O-])CCCC1`, the melting point came to 190 °C.
In the case of `O=Cc1ccc(-c2cccc(C(=O)O)c2)cc1` it was 166 °C; in that of `C=C[Si](OCCOC)(OCCOC)OCCOC`, -30 °C.
Take `O=C(O)c1cc(O)ccc1[N+](=O)[O-]`: the melting point amounted to 170 °C.
In turn, `CC(Cl)C(C)(C)C` (centres undefined) returned a melting point of -1 °C.
In turn, `O=[N+]([O-])c1ccc(C=Cc2cccc3ccccc23)c([N+](=O)[O-])c1` had a melting point of 228 °C.
The same measure for `Cc1ccccc1P(c1ccccc1)c1ccccc1`: 72 °C.
With `CCOc1cc(C=O)ccc1OC`, the melting point came to 52 °C.
The same measure for `CCNC(=S)NN`: 80 to 85 °C.
The same measure for `Cc1ccc(NC(=O)CC2C(=O)C3(C)CCC2C3(C)C)cc1` (centres undefined): 158 °C; for `CC(C)(C)c1ccc(S)cc1`: -11 °C; for `O=[N+]([O-])c1ccc(N/N=C2\C=C(c3ccccc3)c3ccccc32)cc1`: 265 to 266 °C.
`CC(C)(C)OC(=O)N1CCC(C#N)CC1` gave a melting point of 47 °C.
`Cc1ccc(-c2onc(C(=O)c3ccc([N+](=O)[O-])cc3)c2S(=O)(=O)c2ccccc2)cc1` registered a melting point of 225 to 227 °C.
The same measure for `NC(Cc1c[nH]c2ccc(Br)cc12)C(=O)O` (racemic): 261 to 267 °C.
For the compound `C=C1C(=O)C23C4CC5C(C)(C=O)CCCC5(C(=O)O4)C2C(OC(C)=O)CC1C3O` (centres undefined), the melting point was 209 °C.
The same measure for `CCOC(=O)Nc1ccc2cc3ccc4c(c3nc2c1)COCN4C(=O)OCC`: 174 °C; for `Cc1ccn(-c2ccccc2)n1`: 37 °C.
In the case of `CN(C(=S)C(=O)c1ccccc1)c1ccccc1` it was 109 °C; in that of `CC(C)OC(=O)c1cc(-c2nn(C)c(C(F)(F)F)c2Br)c(F)cc1Cl`, 80 °C.
The same measure for `OC1CC(c2ccccc2)NC2(CCCC2)C1` (centres undefined): 240 to 243 °C; for `S=C=Nc1ccc(Oc2ccccc2)nc1`: 41 to 42 °C; for `N#CCc1cccc(I)c1`: 34 °C.
For `O=C(CCl)N1CCOCC1`, the melting point was 37 °C.
The same measure for `CCOC(=O)c1nc(C(Cl)(Cl)Cl)n(-c2ccc(Cl)cc2Cl)n1`: 110 °C; for `O=c1[nH]n(C2C=CC3C4C=CC(C4)C32)c(=O)n1-c1ccccc1` (centres undefined): 155 °C; for `c1ccc2c(c1)ccc1ccc3ccccc3c12`: 68 °C.
The compound `CCCSc1sc(C(=O)OCC)c2c1C(=O)CCC2` gave a melting point of 136 to 139 °C.
The same measure for `Cc1cccc2c1ccc1ccccc12`: 123 °C.
The same measure for `O=Cc1cccc2ncccc12`: 96 °C.
In the case of `COc1ccc(Cl)cc1N=C=S` it was 58 °C.
In turn, `CC1(C)OC(C)(C(O)(c2ccccc2)c2ccccc2)CCC1C(=O)O` (centres undefined) gave a melting point of 163 °C.
In the case of `CC(=O)OC1C2=C(C(=O)C(OC(C)=O)C3(CC3C)C2=O)C2(C)CCCC(C)(C)C2C1O` (centres undefined) it was 172 to 173 °C; in that of `O=C(CCl)Nc1cccc(Cl)c1Cl`, 104 to 106 °C.
Turning to `O=C(O)c1cc(Cl)nc(Cl)c1`, the melting point was 210 to 211 °C.
In the case of `NC(=O)Cc1ccc(O)cc1` it was 176 to 180 °C; in that of `Cn1c(CN)nc2ccccc21`, 261 to 263 °C.
The same measure for `C=CC/C=C/C`: -139 °C; for `O=C(O)c1cc(F)cc2c1OCOC2`: 180 to 182 °C.
`N#CCCn1cnc2c(N)ncnc21` registered a melting point of 255 °C.
In the case of `COC(=O)c1cc(O)no1` it was 159 to 160 °C.
In the case of `Oc1cc(Cl)c(Cl)c(Cl)c1`, the melting point stood at 101 °C.
Take `NC(=O)c1cccnc1Sc1ccc(Cl)cc1`: the melting point was in the range of 209 to 211 °C.
As for `CCOC(=O)c1c(-c2cccs2)csc1N`, the melting point was 85 to 87 °C.
In turn, `O=C(c1ccc(C(=O)C(Cl)(Cl)Cl)cc1)C(Cl)(Cl)Cl` gave a melting point of 121 °C.
Consider `O=C1CCCN1c1ccc([N+](=O)[O-])cc1`, for which the melting point lay in the range of 128 to 130 °C.
In the case of `O=C(CC(NC(=O)OCC1c2ccccc2-c2ccccc21)C(=O)O)NC(c1ccccc1)(c1ccccc1)c1ccccc1` (centres undefined) it was 205 °C.
Compound `CC(C)C[C@H](NC(=O)OCC1c2ccccc2-c2ccccc21)C(=O)O` came in with a melting point of 153 to 157 °C.
In the case of `Cc1ccccc1C(=O)Nc1cccc(OC(C)C)c1` it was 92.5 °C; in that of `CCC1CN2CCC1CC2C(O)c1ccnc2ccc(OCCC(C)C)cc12` (centres undefined), 152 °C.
Compound `CC(C)(NO)C(=NO)c1ccccc1` yielded a melting point of 153 to 154 °C.
The compound `COc1ccc(C(C)=NO)cc1` had a melting point of 80 °C.
As to `CCc1cc2c(s1)N(C)C(=O)CN=C2c1ccccc1Cl`, the melting point turned out to be 119 °C.
The same measure for `Cc1ccc2cc3nc(C)ccc3cc2n1`: 237 to 238 °C.
In turn, `O=C(Cl)c1ccccc1[N+](=O)[O-]` returned a melting point of 17 to 20 °C.
Compound `O=S(=O)(Nc1cc(F)c(F)cc1F)C(F)(F)F` registered a melting point of 58.5 °C.
With `Cc1nc(Br)ccc1Br`, the melting point turned out to be 38 °C.
